Results as given in the NIST ThermoML archive (doi:10.1016/j.jct.2013.01.006).
Numbers after ± are expanded uncertainties.

Settings: Liquid, Vibrating tube method

C=C(F)C(F)(F)F [2,3,3,3-tetrafluoro-1-propene]
Settings	mass density [kg/m3]
283.5 K, 3000 kPa	1155.63 ± 0.58
283.5 K, 5000 kPa	1165.27 ± 0.54
283.51 K, 1000 kPa	1145.11 ± 0.6
283.51 K, 10000 kPa	1186.43 ± 0.5
283.51 K, 15000 kPa	1204.63 ± 0.49
283.52 K, 20000 kPa	1220.62 ± 0.5
283.52 K, 25000 kPa	1235 ± 0.52
283.53 K, 30000 kPa	1248.1 ± 0.55
283.53 K, 40000 kPa	1271.31 ± 0.63
283.53 K, 50000 kPa	1291.52 ± 0.74
283.53 K, 60000 kPa	1309.52 ± 0.88
283.53 K, 69990 kPa	1325.92 ± 1.1
283.54 K, 79990 kPa	1340.69 ± 1.2
283.54 K, 89990 kPa	1354.31 ± 1.4
283.54 K, 99990 kPa	1367.01 ± 1.6
293.42 K, 100000 kPa	1352.4 ± 1.6
293.43 K, 1000 kPa	1111.44 ± 0.68
293.43 K, 3000 kPa	1123.79 ± 0.63
293.43 K, 5000 kPa	1134.97 ± 0.59
293.43 K, 80000 kPa	1324.88 ± 1.2
293.43 K, 89990 kPa	1339.25 ± 1.4
293.44 K, 10000 kPa	1159.05 ± 0.53
293.44 K, 15000 kPa	1179.37 ± 0.5
293.44 K, 20000 kPa	1196.95 ± 0.5
293.44 K, 70000 kPa	1309.56 ± 1.1
293.45 K, 25000 kPa	1212.64 ± 0.51
293.45 K, 30000 kPa	1226.8 ± 0.53
293.45 K, 40000 kPa	1251.77 ± 0.61
293.45 K, 50000 kPa	1273.28 ± 0.71
293.45 K, 60000 kPa	1292.28 ± 0.83
303.3 K, 1000 kPa	1077.2 ± 0.78
303.3 K, 3000 kPa	1092.22 ± 0.72
303.3 K, 5000 kPa	1105.38 ± 0.65
303.3 K, 10000 kPa	1133.08 ± 0.57
303.3 K, 20000 kPa	1175.21 ± 0.51
303.3 K, 25000 kPa	1192.3 ± 0.51
303.3 K, 30000 kPa	1207.61 ± 0.53
303.3 K, 40000 kPa	1234.24 ± 0.59
303.3 K, 50000 kPa	1257.07 ± 0.68
303.3 K, 60000 kPa	1277.12 ± 0.8
303.31 K, 15000 kPa	1155.81 ± 0.52
303.31 K, 69990 kPa	1295.36 ± 1
303.31 K, 80000 kPa	1311.51 ± 1.2
303.31 K, 90000 kPa	1326.38 ± 1.3
303.31 K, 99990 kPa	1340.07 ± 1.5
313.3 K, 3000 kPa	1054.12 ± 0.84
313.3 K, 5000 kPa	1070.05 ± 0.73
313.3 K, 10000 kPa	1102.25 ± 0.61
313.3 K, 15000 kPa	1127.81 ± 0.55
313.31 K, 20000 kPa	1149.23 ± 0.52
313.31 K, 25000 kPa	1167.84 ± 0.5
313.31 K, 30000 kPa	1184.38 ± 0.51
313.31 K, 79990 kPa	1294.04 ± 1.1
313.31 K, 100000 kPa	1323.74 ± 1.4
313.32 K, 40000 kPa	1212.87 ± 0.57
313.32 K, 50000 kPa	1237.08 ± 0.65
313.32 K, 60000 kPa	1258.24 ± 0.76
313.32 K, 70000 kPa	1277.17 ± 1
313.32 K, 90000 kPa	1309.49 ± 1.3
323.16 K, 30000 kPa	1163.21 ± 0.51
323.16 K, 80000 kPa	1279.1 ± 1.1
323.16 K, 90000 kPa	1295.16 ± 1.2
323.16 K, 100000 kPa	1309.92 ± 1.4
323.17 K, 3000 kPa	1014.55 ± 1
323.17 K, 5000 kPa	1034.38 ± 0.85
323.17 K, 10000 kPa	1072.33 ± 0.68
323.17 K, 15000 kPa	1101.29 ± 0.58
323.17 K, 20000 kPa	1125.01 ± 0.53
323.17 K, 25000 kPa	1145.33 ± 0.51
323.17 K, 40000 kPa	1193.69 ± 0.55
323.17 K, 50000 kPa	1219.3 ± 0.63
323.17 K, 60000 kPa	1241.51 ± 0.73
323.17 K, 69990 kPa	1261.48 ± 0.98
333.08 K, 3000 kPa	970.09 ± 1.4
333.08 K, 5000 kPa	995.64 ± 1
333.08 K, 10000 kPa	1041.18 ± 0.76
333.08 K, 15000 kPa	1074.07 ± 0.62
333.08 K, 20000 kPa	1100.37 ± 0.55
333.08 K, 25000 kPa	1122.55 ± 0.52
333.08 K, 30000 kPa	1141.81 ± 0.51
333.08 K, 40000 kPa	1174.38 ± 0.53
333.08 K, 50000 kPa	1201.52 ± 0.6
333.08 K, 60000 kPa	1224.88 ± 0.69
333.08 K, 70000 kPa	1245.82 ± 0.95
333.08 K, 80000 kPa	1264.16 ± 1
333.08 K, 90000 kPa	1280.84 ± 1.2
333.08 K, 99990 kPa	1296.14 ± 1.3
343.03 K, 25000 kPa	1099.43 ± 0.54
343.04 K, 30000 kPa	1120.26 ± 0.51
343.04 K, 40000 kPa	1155.06 ± 0.52
343.05 K, 50000 kPa	1183.7 ± 0.58
343.05 K, 60000 kPa	1208.19 ± 0.67
343.05 K, 70000 kPa	1230.04 ± 0.94
343.05 K, 80000 kPa	1249.14 ± 1
343.05 K, 90000 kPa	1266.4 ± 1.1
343.06 K, 15000 kPa	1045.88 ± 0.68
343.06 K, 20000 kPa	1075.15 ± 0.58
343.06 K, 100000 kPa	1282.22 ± 1.3
343.07 K, 3000 kPa	917.18 ± 2
343.07 K, 5000 kPa	952.33 ± 1.3
343.07 K, 10000 kPa	1008.02 ± 0.88
353.02 K, 3000 kPa	849.05 ± 3.2
353.02 K, 99990 kPa	1268.7 ± 1.2
353.03 K, 5000 kPa	902.77 ± 1.8
353.03 K, 10000 kPa	973.22 ± 1
353.03 K, 15000 kPa	1016.73 ± 0.75
353.03 K, 20000 kPa	1049.45 ± 0.62
353.03 K, 25000 kPa	1075.98 ± 0.55
353.03 K, 30000 kPa	1098.53 ± 0.51
353.03 K, 40000 kPa	1135.71 ± 0.52
353.03 K, 50000 kPa	1166.05 ± 0.56
353.03 K, 60000 kPa	1191.81 ± 0.63
353.03 K, 69990 kPa	1214.55 ± 0.91
353.03 K, 79990 kPa	1234.41 ± 0.98
353.03 K, 89990 kPa	1252.33 ± 1.1
362.96 K, 5000 kPa	843.74 ± 2.4
362.96 K, 10000 kPa	936.17 ± 1.3
362.96 K, 15000 kPa	986.89 ± 0.83
362.96 K, 20000 kPa	1023.49 ± 0.67
362.96 K, 25000 kPa	1052.55 ± 0.58
362.96 K, 30000 kPa	1076.97 ± 0.52
362.96 K, 40000 kPa	1116.69 ± 0.51
362.96 K, 50000 kPa	1148.71 ± 0.54
362.96 K, 60000 kPa	1175.67 ± 0.61
362.96 K, 70000 kPa	1199.47 ± 0.9
362.96 K, 80000 kPa	1220.08 ± 0.96
362.96 K, 89990 kPa	1238.55 ± 1
362.96 K, 100000 kPa	1255.48 ± 1.2
